Key:
Assay type in all cases: cell-based
Parameters in all cases: unit not given here
Settings in all cases: Isosensitest agar, 10^4 CFU/spot
[1] = system: E. coli DCO (A8341098); test: MIC by agar-dilution, E. coli DCO (A8341098)
Source text: (§1) The following results were obtained for representative compounds on a standard in vitro test system using Isosensitest agar medium. The antibacterial activity is described in terms of the minimum inhibitory concentration (MlC) determined by the agar-dilution technique with an inoculum size of 10^4 CFU/spot.

[2] = system: Serr. marcesens (A8421003); test: MIC by agar-dilution, Serr. marcesens (A8421003)
Source text: as §1

[3] = system: P. aeruginosa PU21 (A8101028); test: MIC by agar-dilution, P. aeruginosa PU21 (A8101028)
Source text: as §1

[4] = system: Pr. morganii (A8433001); test: MIC by agar-dilution, Pr. morganii (A8433001)
Source text: as §1

[5] = system: Kleb. oxytoca (A8395055); test: MIC by agar-dilution, Kleb. oxytoca (A8395055)
Source text: as §1

[6] = system: S. dublin (A8369001); test: MIC by agar-dilution, S. dublin (A8369001)
Source text: as §1

[7] = system: Strep. pyogenes (A681018); test: MIC by agar-dilution, Strep. pyogenes (A681018)
Source text: as §1

[8] = system: St. aureus 147N (A8601052); test: MIC by agar-dilution, St. aureus 147N (A8601052)
Source text: as §1

[9] = system: Ent. cloacae P99 (A8401054); test: MIC by agar-dilution, Ent. cloacae P99 (A8401054)
Source text: as §1

Substance: 7-[2-(2-Aminothiazol-4-yl)-2-((Z)-1-carboxy-1-methylethoxyimino)acetamido]- 3-(8-bromo-6,7-dihydroxy-3-oxo-tetrahydroisoquinolin-2-ylmethyl)ceph-3-em-4-carboxylic acid [Example 8]
- MIC [1]: 0.008
- MIC [2]: 0.06
- MIC [3]: 0.008
- MIC [4]: 0.25
- MIC [5]: 0.015
- MIC [6]: 0.03
- MIC [7]: 0.06
- MIC [8]: 8
- MIC [9]: 0.125

Source: patent US5219848A, “Cephem compounds” (ICI Pharma, priority 1989, dated 1993)
